Assays:
Test in all cases: biochemical
Set-up in all cases: Invitrogen SelectScreen kinase panel, percent inhibition at 1 uM, ATP at Km
Conditions in all cases: read-out: Invitrogen KSS %Inh at 1 µM
DYRK1A = DYRK1A (Homo sapiens, UniProt Q13627)
Description: (§1) The METi and RAFi were screened against kinase panels (SelectScreen, Invitrogen; University of Dundee, Division of Signal Transduction Therapy, UK; Upstate Biotechnology/Millipore, Billerica, MA). In these selectivity assays the concentration of ATP was set to the Km value of ATP for each kinase tested to allow for a relative potency comparison between the various kinases. The compounds were tested at 1 µM final concentration. […] Supplementary file pone.0039653.s002.pdf: Figure S2 Kinase Selectivity Screen of RAFi. (A) Kinase selectivity screen (KSS) performed at University of Dundee (Division of Signal Transduction Therapy). Values in % inhibition of phosphorylation given 1 µM of RAFi compared to control. (B) KSS performed at Invitrogen (Selectscreen Service) compared to control. Values in % inhibition of phosphorylation given 1 µM of RAFi. (C) Cell based dose response kinase inhibition of indicated kinases by RAFi. (PDF) Click here for additional data file.

MARK1 = MARK1 (Homo sapiens, UniProt Q9P0L2)
Description: as §1

PAK4 = PAK4 (Homo sapiens, UniProt O96013)
Description: as §1

CSNK1D (CK1 delta) = CSNK1D (CK1 delta) (Homo sapiens, UniProt P48730)
Description: as §1

ACVR1B (ALK4) = ACVR1B (ALK4) (Homo sapiens, UniProt P36896)
Description: as §1

AURKA (Aurora A) = AURKA (Aurora A) (Homo sapiens, UniProt O14965)
AURKA (Aurora A), sequence (O14965 whole entry): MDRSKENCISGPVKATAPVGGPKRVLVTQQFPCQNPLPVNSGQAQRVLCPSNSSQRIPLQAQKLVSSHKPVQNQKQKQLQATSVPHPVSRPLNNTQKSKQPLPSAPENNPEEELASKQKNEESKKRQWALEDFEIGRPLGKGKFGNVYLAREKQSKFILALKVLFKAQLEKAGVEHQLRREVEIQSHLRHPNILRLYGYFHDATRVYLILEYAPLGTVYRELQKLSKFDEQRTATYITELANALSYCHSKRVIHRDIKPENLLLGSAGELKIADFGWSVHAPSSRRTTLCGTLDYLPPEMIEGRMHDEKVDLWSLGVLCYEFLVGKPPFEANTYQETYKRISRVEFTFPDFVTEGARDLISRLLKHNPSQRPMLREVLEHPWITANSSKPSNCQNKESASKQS
Description: as §1

MAPKAPK3 = MAPKAPK3 (Homo sapiens, UniProt Q16644)
Description: as §1

CSK = CSK (Homo sapiens, UniProt P41240)
Description: as §1

CDK2/CyclinA = CDK2/CyclinA (Homo sapiens, UniProt P24941)
Description: as §1

PDK1 = target: T1, PDK1 (Homo sapiens, UniProt O15530)
T1 construct: gene PDPK1
Description: as §1

LCK = LCK (Homo sapiens, UniProt P06239)
Description: as §1

ITK = ITK (Homo sapiens, UniProt Q08881)
Description: as §1

MAPK12 (p38 gamma) = MAPK12 (p38 gamma) (Homo sapiens, UniProt P53778)
MAPK12 (p38 gamma), sequence (P53778 whole entry): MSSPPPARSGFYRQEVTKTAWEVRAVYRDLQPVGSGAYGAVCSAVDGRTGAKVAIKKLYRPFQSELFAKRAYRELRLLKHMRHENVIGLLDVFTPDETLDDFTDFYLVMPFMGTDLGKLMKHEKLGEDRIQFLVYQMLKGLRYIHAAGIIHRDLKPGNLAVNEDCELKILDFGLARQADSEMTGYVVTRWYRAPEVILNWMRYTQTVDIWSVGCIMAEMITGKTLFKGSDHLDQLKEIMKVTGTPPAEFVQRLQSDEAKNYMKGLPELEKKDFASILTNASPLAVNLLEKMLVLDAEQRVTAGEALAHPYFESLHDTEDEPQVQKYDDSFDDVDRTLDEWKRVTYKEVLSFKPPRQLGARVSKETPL
Description: as §1

AMPK A1/B1/G1 = target: T2, AMPK A1/B1/G1 (Homo sapiens, UniProt Q13131)
T2 construct: gene PRKAA1; A1/B1/G1
Description: as §1

DAPK3 (ZIPK) = DAPK3 (ZIPK) (Homo sapiens, UniProt O43293)
DAPK3 (ZIPK), sequence (O43293 whole entry): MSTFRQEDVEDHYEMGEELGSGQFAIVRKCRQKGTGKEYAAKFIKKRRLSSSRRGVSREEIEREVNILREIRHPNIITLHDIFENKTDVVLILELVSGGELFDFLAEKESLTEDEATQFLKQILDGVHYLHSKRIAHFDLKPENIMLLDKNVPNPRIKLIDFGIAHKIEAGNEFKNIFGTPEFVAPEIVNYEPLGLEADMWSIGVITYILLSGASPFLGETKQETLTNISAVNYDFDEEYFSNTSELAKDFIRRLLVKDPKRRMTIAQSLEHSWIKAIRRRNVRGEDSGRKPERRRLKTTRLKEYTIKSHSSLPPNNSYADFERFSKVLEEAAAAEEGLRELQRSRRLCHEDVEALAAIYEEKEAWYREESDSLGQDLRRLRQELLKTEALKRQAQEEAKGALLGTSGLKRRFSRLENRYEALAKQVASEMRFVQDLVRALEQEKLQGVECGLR
Description: as §1

NEK7 = NEK7 (Homo sapiens, UniProt Q8TDX7)
NEK7, sequence (Q8TDX7 whole entry): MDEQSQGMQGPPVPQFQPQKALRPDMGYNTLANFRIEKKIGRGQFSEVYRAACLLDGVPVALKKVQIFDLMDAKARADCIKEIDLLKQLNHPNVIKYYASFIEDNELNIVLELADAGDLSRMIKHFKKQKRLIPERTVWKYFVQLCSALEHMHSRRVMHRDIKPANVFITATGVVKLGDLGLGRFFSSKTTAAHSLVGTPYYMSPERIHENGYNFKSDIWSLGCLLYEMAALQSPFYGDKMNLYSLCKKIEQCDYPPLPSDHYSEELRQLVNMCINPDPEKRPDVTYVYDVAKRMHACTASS
Description: as §1

PKN1 (PRK1) = PKN1 (PRK1) (Homo sapiens, UniProt Q16512)
Description: as §1

FLT1 (VEGFR1) = FLT1 (VEGFR1) (Homo sapiens, UniProt P17948)
FLT1 (VEGFR1), sequence (P17948 whole entry): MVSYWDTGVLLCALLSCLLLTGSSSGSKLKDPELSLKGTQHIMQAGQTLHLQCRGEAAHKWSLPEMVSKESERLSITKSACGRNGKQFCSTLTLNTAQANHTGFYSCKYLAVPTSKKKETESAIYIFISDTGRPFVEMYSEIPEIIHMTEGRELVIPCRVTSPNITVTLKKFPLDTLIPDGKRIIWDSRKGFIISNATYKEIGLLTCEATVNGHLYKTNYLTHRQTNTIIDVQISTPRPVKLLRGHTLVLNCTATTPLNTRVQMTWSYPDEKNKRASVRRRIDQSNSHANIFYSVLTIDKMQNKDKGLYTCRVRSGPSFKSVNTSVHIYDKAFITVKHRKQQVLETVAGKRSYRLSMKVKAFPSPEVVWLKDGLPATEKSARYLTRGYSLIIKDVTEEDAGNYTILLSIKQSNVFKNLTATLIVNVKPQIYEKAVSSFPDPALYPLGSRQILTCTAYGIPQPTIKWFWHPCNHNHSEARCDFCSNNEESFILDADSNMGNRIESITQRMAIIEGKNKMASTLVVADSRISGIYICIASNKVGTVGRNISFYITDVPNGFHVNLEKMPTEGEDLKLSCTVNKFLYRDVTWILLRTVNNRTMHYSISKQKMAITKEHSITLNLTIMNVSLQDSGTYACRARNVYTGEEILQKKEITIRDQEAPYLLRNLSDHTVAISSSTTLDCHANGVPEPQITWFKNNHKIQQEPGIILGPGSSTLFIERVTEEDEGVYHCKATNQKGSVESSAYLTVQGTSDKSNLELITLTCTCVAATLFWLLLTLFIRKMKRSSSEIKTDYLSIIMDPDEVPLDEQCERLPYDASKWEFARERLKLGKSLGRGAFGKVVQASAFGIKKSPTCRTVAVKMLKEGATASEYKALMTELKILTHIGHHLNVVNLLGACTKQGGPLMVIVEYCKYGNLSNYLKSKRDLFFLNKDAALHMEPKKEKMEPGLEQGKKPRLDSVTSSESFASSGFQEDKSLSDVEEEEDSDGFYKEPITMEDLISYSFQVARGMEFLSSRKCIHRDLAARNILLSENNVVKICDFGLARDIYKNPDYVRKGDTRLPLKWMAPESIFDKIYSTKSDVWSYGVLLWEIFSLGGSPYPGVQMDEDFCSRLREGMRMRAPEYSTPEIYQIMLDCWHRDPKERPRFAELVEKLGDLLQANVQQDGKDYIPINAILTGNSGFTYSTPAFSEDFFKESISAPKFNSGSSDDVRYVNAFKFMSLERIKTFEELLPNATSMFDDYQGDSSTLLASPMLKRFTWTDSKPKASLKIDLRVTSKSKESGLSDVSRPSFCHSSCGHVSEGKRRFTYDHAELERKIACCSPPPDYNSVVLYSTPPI
Description: as §1

EPHA2 = EPHA2 (Homo sapiens, UniProt P29317)
EPHA2, sequence (P29317 whole entry): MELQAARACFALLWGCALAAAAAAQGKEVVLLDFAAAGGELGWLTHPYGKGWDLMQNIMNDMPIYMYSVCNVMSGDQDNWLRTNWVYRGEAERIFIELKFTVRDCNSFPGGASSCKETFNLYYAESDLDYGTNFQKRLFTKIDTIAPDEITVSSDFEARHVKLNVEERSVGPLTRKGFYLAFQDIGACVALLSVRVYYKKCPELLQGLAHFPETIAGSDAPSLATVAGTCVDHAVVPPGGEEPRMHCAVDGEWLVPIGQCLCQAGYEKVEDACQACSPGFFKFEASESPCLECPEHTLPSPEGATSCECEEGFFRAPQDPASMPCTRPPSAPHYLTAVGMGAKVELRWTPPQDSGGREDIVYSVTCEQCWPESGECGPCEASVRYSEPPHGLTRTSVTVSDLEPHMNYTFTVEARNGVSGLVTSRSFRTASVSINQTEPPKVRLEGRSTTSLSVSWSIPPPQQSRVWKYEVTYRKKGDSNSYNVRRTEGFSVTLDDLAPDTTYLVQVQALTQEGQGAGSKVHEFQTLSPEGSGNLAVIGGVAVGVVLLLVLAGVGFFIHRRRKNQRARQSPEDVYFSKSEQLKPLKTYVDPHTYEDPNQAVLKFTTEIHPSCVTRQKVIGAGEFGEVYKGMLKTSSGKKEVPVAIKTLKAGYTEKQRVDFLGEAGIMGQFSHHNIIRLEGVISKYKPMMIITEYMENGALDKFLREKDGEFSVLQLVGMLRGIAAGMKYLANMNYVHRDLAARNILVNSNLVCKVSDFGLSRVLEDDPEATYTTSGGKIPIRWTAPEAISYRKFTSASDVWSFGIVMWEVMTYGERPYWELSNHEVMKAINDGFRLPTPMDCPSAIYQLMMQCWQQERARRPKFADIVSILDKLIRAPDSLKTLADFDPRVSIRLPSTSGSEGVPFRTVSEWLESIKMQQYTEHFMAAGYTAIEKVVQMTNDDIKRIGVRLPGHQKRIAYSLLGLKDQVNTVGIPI
Description: as §1

CHEK2 (CHK2) = CHEK2 (CHK2) (Homo sapiens, UniProt O96017)
Description: as §1

MAPK3 (ERK1) = MAPK3 (ERK1) (Homo sapiens, UniProt P27361)
Description: as §1

EGFR (ErbB1) L861Q = EGFR (ErbB1) L861Q (Homo sapiens, UniProt P00533, L861Q)
EGFR (ErbB1) L861Q, sequence (P00533 whole entry L861Q): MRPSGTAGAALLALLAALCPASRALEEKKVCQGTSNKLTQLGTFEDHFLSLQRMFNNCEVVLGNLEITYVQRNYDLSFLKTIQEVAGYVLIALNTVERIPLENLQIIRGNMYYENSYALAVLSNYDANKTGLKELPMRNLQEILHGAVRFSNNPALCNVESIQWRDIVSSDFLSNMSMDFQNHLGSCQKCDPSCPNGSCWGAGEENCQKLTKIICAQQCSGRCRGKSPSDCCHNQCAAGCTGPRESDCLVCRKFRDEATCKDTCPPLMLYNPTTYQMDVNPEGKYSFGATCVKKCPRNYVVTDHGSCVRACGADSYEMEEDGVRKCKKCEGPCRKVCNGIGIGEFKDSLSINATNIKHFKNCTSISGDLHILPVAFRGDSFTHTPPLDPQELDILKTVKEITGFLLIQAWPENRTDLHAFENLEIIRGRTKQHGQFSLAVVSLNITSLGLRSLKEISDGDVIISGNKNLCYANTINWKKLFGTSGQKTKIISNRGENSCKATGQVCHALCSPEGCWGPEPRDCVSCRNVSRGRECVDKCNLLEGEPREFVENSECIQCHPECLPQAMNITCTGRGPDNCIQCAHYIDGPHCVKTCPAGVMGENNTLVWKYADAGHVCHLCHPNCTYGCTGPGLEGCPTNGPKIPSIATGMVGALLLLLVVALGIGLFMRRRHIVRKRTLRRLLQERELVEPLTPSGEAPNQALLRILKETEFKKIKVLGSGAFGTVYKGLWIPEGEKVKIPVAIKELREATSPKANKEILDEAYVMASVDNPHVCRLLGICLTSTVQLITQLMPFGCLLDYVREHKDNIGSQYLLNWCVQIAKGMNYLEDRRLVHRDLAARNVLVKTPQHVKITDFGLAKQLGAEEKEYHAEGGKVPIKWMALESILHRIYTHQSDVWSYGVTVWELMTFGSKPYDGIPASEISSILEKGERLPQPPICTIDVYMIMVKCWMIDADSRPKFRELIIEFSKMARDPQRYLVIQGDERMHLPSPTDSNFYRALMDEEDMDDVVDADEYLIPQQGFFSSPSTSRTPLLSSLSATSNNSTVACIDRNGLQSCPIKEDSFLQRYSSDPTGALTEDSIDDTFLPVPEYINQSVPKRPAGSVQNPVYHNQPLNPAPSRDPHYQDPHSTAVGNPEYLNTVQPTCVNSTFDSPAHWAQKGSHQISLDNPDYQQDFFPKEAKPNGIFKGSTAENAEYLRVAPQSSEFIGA
Description: as §1

N#CCCNc1nccc(-c2cn(CC(F)F)nc2-c2cnc3[nH]ccc3c2)n1 [RAFi, PF-04880594]
inhibition at 1 µM (DYRK1A): -12% | inhibition at 1 µM (MARK1): 2% | inhibition at 1 µM (PAK4): 1% | inhibition at 1 µM (CSNK1D (CK1 delta)): 95% | inhibition at 1 µM (ACVR1B (ALK4)): 7% | inhibition at 1 µM (AURKA (Aurora A)): 15% | inhibition at 1 µM (MAPKAPK3): 12% | inhibition at 1 µM (CSK): 1% | inhibition at 1 µM (CDK2/CyclinA): 18% | inhibition at 1 µM (PDK1): 13% | inhibition at 1 µM (LCK): 15% | inhibition at 1 µM (ITK): 0% | inhibition at 1 µM (MAPK12 (p38 gamma)): 2% | inhibition at 1 µM (AMPK A1/B1/G1): 16% | inhibition at 1 µM (DAPK3 (ZIPK)): 5% | inhibition at 1 µM (NEK7): 23% | inhibition at 1 µM (PKN1 (PRK1)): -10% | inhibition at 1 µM (FLT1 (VEGFR1)): 2% | inhibition at 1 µM (EPHA2): -2% | inhibition at 1 µM (CHEK2 (CHK2)): 7% | inhibition at 1 µM (MAPK3 (ERK1)): 28% | inhibition at 1 µM (EGFR (ErbB1) L861Q): 5%

Source: paper PMC3382171 (PLoS ONE, 2012)
